The source made the active and inactive calls. For most assays here, no stated cut-off is given here; in the data, actives have a measured EC50 and inactives only a lower limit.
How the values were obtained:
[1] = NIH3T3 cell viability loss – ATP luminescence, mouse fibroblasts, counter-screen, dose response (AID 2010); format: functional, cell-based;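 further: cells exposed to compound for about 90 hours before reading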
[2] = Trypanosoma cruzi growth suppression in host cells – NIH3T3 host cells, beta-gal luminescence, confirmation (AID 2044); format: functional, cell-based;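 further: intracellular parasites grown in NIH/3T3 mouse fibroblasts as host cells; luminescent beta-galactosidase reporter signal from transgenic T. cruzi replicating inside host cells; inhibitors lower the luminescence signal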
INS1 = assay: INS-1E survival protection against cytokine death – cell-based, luminescence, retest, dose response (AID 449756); format: functional; conditions: Rattus norvegicus;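 further: cell death triggered by IL-1 beta plus TNF-alpha plus IFN-gamma mixture; protective hits raise ATP signal compared with cytokine alone wells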
[3] = target: T1, Rac GTPase-activating protein 1 (Homo sapiens, UniProt Q9H0H5); assay: blockers of MgcRacGAP-driven Rac1 GTP hydrolysis – biochemical, ADP Hunter fluorescence, primary and confirmatory, confirmation (AID 624330); format: functional
T1 sequence (Q9H0H5 whole entry): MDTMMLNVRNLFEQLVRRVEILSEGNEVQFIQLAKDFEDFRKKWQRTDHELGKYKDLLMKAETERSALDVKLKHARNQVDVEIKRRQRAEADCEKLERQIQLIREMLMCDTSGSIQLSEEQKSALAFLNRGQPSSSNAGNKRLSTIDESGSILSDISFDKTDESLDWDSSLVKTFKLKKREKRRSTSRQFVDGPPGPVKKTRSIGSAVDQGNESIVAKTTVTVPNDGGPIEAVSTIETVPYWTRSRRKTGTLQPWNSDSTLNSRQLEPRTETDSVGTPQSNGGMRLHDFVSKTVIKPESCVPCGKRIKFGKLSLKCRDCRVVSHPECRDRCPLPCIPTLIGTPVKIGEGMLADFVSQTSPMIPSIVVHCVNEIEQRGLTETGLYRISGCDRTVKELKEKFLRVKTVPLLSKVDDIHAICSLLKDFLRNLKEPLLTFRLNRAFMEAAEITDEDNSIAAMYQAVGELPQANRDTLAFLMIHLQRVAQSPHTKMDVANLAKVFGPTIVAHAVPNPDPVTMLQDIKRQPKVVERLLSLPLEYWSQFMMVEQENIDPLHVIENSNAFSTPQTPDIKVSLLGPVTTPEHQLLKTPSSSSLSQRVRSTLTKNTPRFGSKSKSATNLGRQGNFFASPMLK

[4] = Luminescence Cell-Based Dose Retest to Confirm Inhibitors of Cancer Stem Cells. [Related pubchem assays (depositor defined):AID2717, AID2721]; format: functional; conditions: Homo sapiens
[5] = system: Streptococcus sp. 'group A'; assay: Streptococcus pyogenes SK(-)GAS viability under kanamycin – luminescence, BacTiterGlo, confirmation, counter-screen for streptokinase expression inhibitor project, dose response (AID 1900); format: functional, organism-based
Streptococcus = assay: GAS UMAA2166 growth inhibition – luminescence, BacTiterGlo, counter-screen for streptokinase expression inhibitor project, dose response (AID 1915); format: functional, organism-based;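 further: potency for reduction of bacterial viability or growth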
Paired box protein Pax-8 = Paired box protein Pax-8 (Homo sapiens, UniProt Q06710); assay: PAX8 transcriptional activity inhibition in RMG-I – RMG-I cells, luciferase, cherry-pick, dose response (AID 687027); format: functional, cell-based;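 further: luciferase reporter driven by Pax8 target thyroperoxidase promoter measured by SteadyGlo luminescence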
Streptokinase A = target: T2, Streptokinase A (Streptococcus pyogenes serotype M1, UniProt P10520); assay: viability-normalized secreted streptokinase activity reduction – plasminogen activation absorbance, OD405, dose response (AID 1914); format: functional, Streptococcus pyogenes M1 GAS;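 further: secreted streptokinase activity via plasminogen activation per viability signal from cell pellet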
T2 sequence (P10520 whole entry): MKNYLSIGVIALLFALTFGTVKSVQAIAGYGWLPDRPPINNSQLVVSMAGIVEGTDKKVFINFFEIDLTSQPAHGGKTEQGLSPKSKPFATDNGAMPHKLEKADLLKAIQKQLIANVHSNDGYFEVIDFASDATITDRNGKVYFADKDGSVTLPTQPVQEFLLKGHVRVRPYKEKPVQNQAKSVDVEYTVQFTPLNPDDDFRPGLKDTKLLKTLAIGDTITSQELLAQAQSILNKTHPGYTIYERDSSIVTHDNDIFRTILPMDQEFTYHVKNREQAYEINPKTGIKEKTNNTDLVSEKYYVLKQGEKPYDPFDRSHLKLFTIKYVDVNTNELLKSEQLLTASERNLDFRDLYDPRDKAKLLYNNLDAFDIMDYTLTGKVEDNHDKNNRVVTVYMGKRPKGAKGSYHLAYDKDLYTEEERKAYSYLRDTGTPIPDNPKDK

Paired box protein Pax-8, sequence (Q06710 whole entry): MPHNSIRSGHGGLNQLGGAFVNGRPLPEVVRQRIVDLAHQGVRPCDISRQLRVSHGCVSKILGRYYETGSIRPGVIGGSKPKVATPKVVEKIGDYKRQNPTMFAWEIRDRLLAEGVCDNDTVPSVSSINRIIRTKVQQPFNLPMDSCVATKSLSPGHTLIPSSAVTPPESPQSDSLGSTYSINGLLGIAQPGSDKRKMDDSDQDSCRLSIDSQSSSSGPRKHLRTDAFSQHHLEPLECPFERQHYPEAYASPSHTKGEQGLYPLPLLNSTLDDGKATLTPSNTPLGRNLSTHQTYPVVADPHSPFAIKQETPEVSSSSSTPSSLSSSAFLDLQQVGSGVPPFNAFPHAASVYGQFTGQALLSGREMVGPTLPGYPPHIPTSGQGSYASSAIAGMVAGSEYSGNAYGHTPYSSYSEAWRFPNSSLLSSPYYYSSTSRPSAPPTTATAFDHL

Cc1ccc(-n2cc(CN3CCC(CO)(Cc4cccc(C(F)(F)F)c4)CC3)cn2)cc1
EC50 [1]: > 60 µM (not active)
EC50 [2]: 0.896 µM (active)

COc1ccc(/C=C/C(=O)NC(=S)Nc2ccccc2C(=O)NC2CCCCC2)cc1
AC50 (INS1): 13.9 µM (active)

C=CCc1cc(/C=N/c2ccc(N3CCOCC3)cc2)cc(OCC)c1O
IC50 [3]: 13.1 µM (active)

Cc1ccn2c(NCc3ccccc3)c(-c3cccc(SC4CCCCC4)c3)nc2c1
AC50 [4]: 4.44 µM (active)

CCOc1cccc2cc(C(=O)Oc3ccc(OC)cc3)c(=O)oc12
IC50 [3]: 52.5 µM (active)

Cc1c(C(=O)NN=C(S)NCc2ccc(Cl)cc2)oc2ccccc12
EC50 [5]: 7.12 µM (active)
EC50 (Streptococcus): > 150 µM (not active)

C[C@@H]1CCCCO[C@H](CN(C)Cc2ccc(C(F)(F)F)cc2)[C@H](C)CN([C@H](C)CO)C(=O)c2cc(NS(=O)(=O)c3cccs3)ccc2O1
AC50 (Paired box protein Pax-8): 11.5 µM (active)

Cc1ccc(-c2nnn(CC(=O)N3c4ccccc4CCc4ccccc43)n2)cc1
EC50 [1]: > 60 µM (not active)
EC50 [2]: 3.26 µM (active)

CCOc1cc(/C=C2\SC(N)=NC2=O)ccc1O
IC50 [3]: 47 µM (active)

COc1ccc(S(=O)(=O)N2CCCCN3[C@H](C2)[C@H](c2ccc(C#CC(C)C)cc2)[C@@H]3CO)cc1
AC50 (Paired box protein Pax-8): 9.44 µM (active)

COc1ccc(OC)c(C2C=C(C34CC5CC(CC(C5)C3)C4)N=C(S)N2)c1 (configuration not stated)
EC50 (Streptokinase A): 14.7 µM (active)
EC50 [5]: 11.2 µM (active)
EC50 [1]: > 30 µM (not active)
EC50 (Streptococcus): > 150 µM (not active)
EC50 [2]: 1.15 µM (active)

CC(C)(C)c1ccc(NC(=O)Cn2cnc3cc([N+](=O)[O-])ccc3c2=O)cc1
EC50 [1]: 22.1 µM (active)
EC50 [2]: 1 µM (active)

Cc1ccc(C(c2nnnn2Cc2ccccc2)N2CC=C(c3ccc(F)cc3)CC2)cc1 (configuration not stated)
EC50 [1]: 20.8 µM (active)
EC50 [2]: 1.95 µM (active)

COc1ccc(N2CCN(C(C)C(=O)N3CCCC3)CC2)cc1 (configuration not stated)
IC50 [3]: 72.4 µM (active)

Cc1c(C(=O)NNC(=S)NCc2ccc(Cl)cc2)oc2ccccc12
EC50 (Streptokinase A): 22.5 µM (active)

C[C@@H]1CCCCO[C@@H](CN(C)Cc2ccc(Cl)c(Cl)c2)[C@H](C)CN([C@H](C)CO)C(=O)c2cc(NS(=O)(=O)c3ccccc3)ccc2O1
AC50 (Paired box protein Pax-8): 7.95 µM (active)

O=C(NN=Cc1ccc(O)cc1)c1ccccc1NS(=O)(=O)c1cccs1
IC50 [3]: 74.4 µM (active)

CS(=O)(=O)c1ccc2nc(NC(=O)c3ccc(NS(=O)(=O)c4ccc(F)c(F)c4)cc3)sc2c1
EC50 [5]: 0.318 µM (active)
EC50 (Streptococcus): 5.61 µM (active)

CC(C)Cc1nc2oc3c(Cl)ncnc3c2c2c1CCCC2
AC50 [4]: 3.3 µM (active)

Nc1nc(Nc2cccc(Cl)c2)nc(NCc2ccco2)c1[N+](=O)[O-]
EC50 (Streptokinase A): > 150 µM (not active)
EC50 [5]: 7.28 µM (active)
EC50 (Streptococcus): 16.4 µM (active)

Cc1ccc2nc(-c3ccc(NC(=O)CNC4CC4)cc3)sc2c1
EC50 (Streptokinase A): > 150 µM (not active)
EC50 [5]: 14.4 µM (active)
EC50 (Streptococcus): > 150 µM (not active)

Cc1ccc(NC(S)=NN=C(S)Nc2cccc(C(F)(F)F)c2)cc1
EC50 (Streptokinase A): > 150 µM (not active)
EC50 [5]: 5.24 µM (active)
EC50 (Streptococcus): 110 µM (active)

CCOc1ccc(CN2CCN(Cc3cccc4c3OCO4)CC2CCO)cc1 (configuration not stated)
EC50 [1]: > 60 µM (not active)
EC50 [2]: 0.208 µM (active)

O=C1CSC(c2cccnc2)N1CC1CC1 (configuration not stated)
AC50 (INS1): > 260 µM (inactive)

Cc1ccc(C)c(S(=O)(=O)N2CCN(CC(=O)NC(=O)NCc3ccccc3)CC2)c1
EC50 [1]: > 60 µM (not active)
EC50 [2]: 0.72 µM (active)

NC(=O)c1cc([N+](=O)[O-])ccc1NCc1ccc(O)cc1
AC50 [4]: 2.92 µM (active)

CC(=O)c1c(Nc2ccc3c(c2)OCCO3)oc(C)cc1=O
IC50 [3]: 54 µM (active)

O=S(=O)(Nc1ccc(O)c(Sc2nc3ccccc3s2)c1)c1cccc2ccccc12
EC50 (Streptokinase A): > 150 µM (not active)
EC50 [5]: 4.05 µM (active)
EC50 (Streptococcus): 7.08 µM (active)
AC50 [4]: 6.45 µM (active)

C/C(=N\Nc1cc(C(F)(F)F)ccc1Cl)c1ccccc1O
AC50 [4]: 83.1 µM (active)

CC12CCC(C(=O)NNC(=O)c3ccccc3)(OC1=O)C2(C)C (configuration not stated)
EC50 (Streptokinase A): > 150 µM (not active)
EC50 [5]: > 150 µM (not active)
EC50 (Streptococcus): > 150 µM (not active)

C=CCc1cc(Cl)ccc1OCCn1ccnc1
IC50 [3]: 139 µM (active)

O=C(COC(=O)Cn1cnc2ccccc2c1=O)Nc1ccc2c(c1)OCO2
AC50 (INS1): > 260 µM (inactive)

O=C(NC(=S)Nc1cccc(Cl)c1N1CCCCC1)c1ccc2c(c1)OCCO2
EC50 (Streptokinase A): 48 µM (active)
EC50 [5]: 80.4 µM (active)
EC50 (Streptococcus): > 150 µM (not active)
AC50 [4]: 0.707 µM (active)

Cc1cccc(C)c1OCCCCN1CCNCC1
IC50 [3]: 122 µM (active)

c1ccc(-c2nc(N3CCN(c4ccccc4)CC3)nc(-n3ccnc3)n2)cc1
EC50 [1]: > 60 µM (not active)
EC50 [2]: 3.53 µM (active)

Cc1cccc(OCC(=O)Nc2ccccc2N2CCCCC2)c1C
EC50 (Streptokinase A): 5.39 µM (active)
EC50 [5]: 9.25 µM (active)
EC50 (Streptococcus): 13.4 µM (active)

Nc1c(C(=O)c2ccccc2)sc(Nc2ccccc2)c1S(=O)(=O)c1ccccc1
EC50 [1]: > 60 µM (not active)
EC50 [2]: 1.47 µM (active)

Cc1cc(C)cc(NC(=O)C(NCCN2CCOCC2)c2ccccc2)c1 (configuration not stated)
IC50 [3]: 48.4 µM (active)

COC(=O)c1ccc2[nH]c3cccc(/C(=C/c4ccccc4)c4ccccc4)c3c2c1
EC50 (Streptokinase A): 1.43 µM (active)
EC50 [5]: 0.602 µM (active)
EC50 (Streptococcus): 3.93 µM (active)
AC50 (INS1): 11.2 µM (active)

C[C@@H]1CN([C@@H](C)CO)C(=O)c2cc(N(C)C)ccc2O[C@@H]1CN(C)Cc1ccc(Oc2ccccc2)cc1
AC50 (Paired box protein Pax-8): 19.1 µM (active)

C/C(=N\Nc1nc2ccccc2[nH]1)c1ccc(Cl)s1
IC50 [3]: 42 µM (active)

COc1cccc(CC2(CO)CCCN(Cc3sc(N4CCCC4)nc3Cl)C2)c1 (configuration not stated)
EC50 [1]: > 30 µM (not active)
EC50 [2]: 1.74 µM (active)

C[C@@H]1CCCCO[C@H](CN(C)C(=O)NC2CCCCC2)[C@@H](C)CN([C@@H](C)CO)C(=O)c2cc(NC(=O)Nc3ccc(C(F)(F)F)cc3)ccc2O1
AC50 (Paired box protein Pax-8): 4.98 µM (active)

COc1ccccc1OCC#CCN1CCCC(C)C1 (configuration not stated)
IC50 [3]: 182 µM (active)

COc1cc2c(cc1OC)C1(CCCC1)C(N)=C2C#N
IC50 [3]: 38 µM (active)

Cc1ccc(CN2CCC(Oc3cccc(C(=O)N(C)CCN(C)C)c3)CC2)cc1C
EC50 [1]: 26 µM (active)
EC50 [2]: < 0.1 µM (active)

O=C(COC(=O)c1ccccc1Br)Nc1nnc(-c2ccccc2)o1
EC50 (Streptokinase A): > 150 µM (not active)
EC50 [5]: 0.834 µM (active)
EC50 (Streptococcus): 19.2 µM (active)

CCOC(=O)c1c(NC(=O)c2cccs2)sc2c1CCN(C(=O)OCC)C2
EC50 [5]: 12 µM (active)

CCOC(=O)c1c(-c2cccs2)csc1NC(=O)c1ccncc1
EC50 [1]: > 30 µM (not active)
EC50 [2]: 2.14 µM (active)

COc1ccc(S(=O)(=O)N[C@@H](C)C(=O)OCC(=O)Nc2cc3oc4ccccc4c3cc2OC)cc1
EC50 (Streptokinase A): > 150 µM (not active)
EC50 [5]: 1.39 µM (active)
EC50 (Streptococcus): 16.4 µM (active)

Cc1cnccc1CN(C)Cc1cn(C)nc1-c1ccc(Oc2ccccc2)cc1
EC50 [1]: > 30 µM (not active)
EC50 [2]: 1.76 µM (active)

Reference: ChEMBL document CHEMBL1201862, “PubChem BioAssay data set” (2004)
